Test results reported in PMC10447463, “Data-mining unveils structure–property–activity correlation of viral infectivity enhancing self-assembling peptides” (Nature Communications, 2023).

Experiments:
[1] = Conversion rate (CR) assay with fluorescamine; format: physicochemical; parameters: key to CR: % = 100−100×filtrate/original fluorescence intensity; conditions: conversion rate, fluorescamine assay; for CR / %: Fig. S7 panel B
Method: For ATR FT–IR spectroscopy measurements, 200 µL of the respective 1 mg/mL PNF solution was lyophilized and the resulting powder used for measurement. All spectra were recorded on a Bruker Tensor 27 spectrometer with a diamond crystal as ATR element (PIKE MiracleTM, spectral resolution 2 cm^-1). Every sample was measured with 64 scans. Data were analyzed with OriginLab software and calculation of β–sheet content was conducted according to a previous report. TEM. For TEM measurements 5 µL of PNF fibrils (1 mg/mL) were placed on copper grids coated with carbon and formvar layer (300 mesh, Plano GmbH). After 10 min incubation time, the grids were staining with 4% uranyl acetate solution for 2.5 min and washed with water. Measurements were performed on a Jeol 1400 electron microscope with 120 kV acceleration voltage. CR Assay. For the determination of the amount of peptide monomer converting into nanostructures the amine reactive dye fluorescamine was used analogous to a previous reported protocol. Briefly, 100 µL of the preformed PNF solution was centrifuged in a Vivaspin 500 tube (3 kDa MWCO) to separate fibers from free peptide monomer (16200 x g, 4 °C, 45 min). The filtrate and 100 μL of the non-filtered PNF sample were lyophilized and dissolved in 30 μL DMSO. 10 μL of the filtrate and non-filtered DMSO samples were submitted in a black UV Star® 384 microliter well–plates (Greiner bio–one) and 3 μL of the fluorescamine solution (10 mg/mL, DMSO) was added to measure the fluorescence enhancement. After 20 min of incubation at RT, fluorescence was recorded on an Infinite® M1000 PRO microplate reader (Tecan) at λem = 470 nm upon excitation at λex = 365 nm with 10 nm bandwidths and multiple reads per well (3×3). Measurements were repeated in triplicates and averaged with standard deviation. All values were calculated as n-fold fluorescence enhancement (DMSO only as a reference was set to 1). The conversion rate CR was defined according to the equation Eq. (3).3 CR=100−100×fluorescenceintensityfiltrate/fluorescenceintensityoriginal[%]

[2] = Turbidity, derived count rate of scattered light; format: physicochemical; conditions: for Count Rate: derived count rate of scattered light (turbidity); for Log10 Count Rate: turbidity, derived count rate of scattered light, data of Figure 2D
[3] = system: HIV-1 infection of TZM-bl cells; assay: HIV-1 infectivity enhancement assay, β-galactosidase luminescence; format: cell-based; conditions: for Rel-EFC: infection relative to EF-C (QCKIKQIINMWQ = 1); for Log10 Infection Rel EFC: log10 of infection relative to EF-C; for Log Infectivity: Log10 infection relative to EF-C, asymmetric std dev errors; for Log10 Infection Rel EF-C: HIV-1 infection of TZM-bl cells; for Log10 of Rel to EFC (Feb2021): Log10 of infection relative to EF-C; for Abs. Inf.: β-galactosidase luminescence; for Log10 Inf. rel. to EF-C: log10 of HIV-1 infection of TZM-bl cells relative to EF-C (EF-C = 0)
[4] = Fig. S7 panel A (plotted against β-sheet content), TZM-bl cells
[5] = Fig. S7 panel B (plotted against CR), rounded to two decimals, TZM-bl cells
[6] = Log10 of infection rate relative to EF-C, Figure 3A source data
[7] = infection rate relative to EF-C, log10, data of Figure 2D
[8] = infection rate relative to EF-C, log10, source data of Figure 2C
[9] = absolute infection signal, HIV-1 on TZM-bl cells
[10] = absolute HIV-1 infection signal, TZM-bl cells
[11] = second listing, peptides with TEM 2cat 0

| Substance | CR / % [1] | CR [1] | Count Rate [2] | Log10 Count Rate [2] | Rel-EFC ([3]; 1.3 µM peptide) | Log10 Infection Rel EFC ([3]; 1.3 µM peptide) | Log Infectivity [3, 4] | Log Infectivity [3, 5] | Log10 Infection Rel EF-C [3, 6] | Log10 Infection Rel EF-C [3, 7] | Log10 Infection Rel EF-C [3, 8] | Log10 of Rel to EFC (Feb2021) ([3]; all peptides of FigS16) | Abs. Inf. [3, 9] | Log10 Inf. rel. to EF-C [3] | other results |
| --- | --- | --- | --- | --- | --- | --- | --- | --- | --- | --- | --- | --- | --- | --- | --- |
| RGDKIKIQIC | 80% | 80 | 7509 | 3.876 | 0,83 | -0,08 | -0.07993 | -0.08 | -0.08 | -0.07993 | -0.07993 | -0.08 |  |  |  |
| RGDKIKIQINMWQ | 66% | 66 | 1554 | 3.1914 | 0,76 | -0,12 | -0.1175 | -0.12 | -0.12 | -0.1175 | -0.1175 | -0.12 |  |  |  |
| RGDKIKIQINM | 60.9% | 60.92 | 57.2 | 1.7574 | 0,41 | -0,38 | -0.3838 | -0.38 | -0.38 | -0.3838 | -0.3838 | -0.38 |  |  |  |
| CKFKQFFNMWQ | 98.7% | 98.72 | 8210 | 3.914 | 0,61 | -0,21 | -0.2148 | -0.21 | -0.21 | -0.2148 | -0.2148 | -0.21 | 23486.66667 | -0.2148 |  |
| KFKFQFFF | 98.5% | 98.46 | 3039 | 3.483 | 0,4 | -0,39 | -0.3936 | -0.39 | -0.39 | -0.3936 | -0.3936 | -0.39 |  |  |  |
| CKIW | 48.3% | 48.26 | 3.2 | 0.5051 | 0,05 | -1,29 | -1.286 | -1.29 | -1.29 | -1.286 | -1.286 |  |  |  | Abs. Inf. [3, 10]: 290 |
| QCKFKQFFNMWQ | 98.7% | 98.72 | 18911.36667 | 4.277 | 0,01 | -2,18 | -0.6059 | -0.61 | -0.61 | -0.6059 | -0.61 | -0.61 | 30896.66667 | -0.6059 |  |
| CKIKIQIRGD | 91% | 91 | 5777 | 3.762 | 0,33 | -0,48 | -0.4842 | -0.48 | -0.48 | -0.4842 | -0.4842 | -0.48 |  |  |  |
| KFKFKFQF | 94% | 94 | 1036 | 3.015 | 0,8 | -0,1 | -0.09726 | -0.1 | -0.1 | -0.09726 | -0.09726 | -0.1 |  |  |  |
| QCKFKQFFNM | 98.7% | 98.67 | 10384.7 | 4.016 | 0,43 | -0,37 | -0.3706 | -0.37 | -0.37 | -0.3706 | -0.3706 | -0.37 | 5847 | -0.3706 |  |
| CSISIQINM | 86% | 86 | 3291 | 3.517 | 0,2 | -0,7 | -0.7027 | -0.7 | -0.7 | -0.7027 | -0.7027 | -0.7 |  |  |  |
| EIEIQINMWQ | 89.9% | 89.92 | 1264 | 3.102 | 0,13 | -0,88 | -0.881 | -0.88 | -0.88 | -0.881 | -0.881 | -0.88 |  |  | infectivity enhancement relative to EF-C ([3]; 1.3 µM peptide): 13%; Log10 of Rel to EFC (Feb2021) [3, 11]: -0.88; Abs. Inf. [3, 10]: 2137 |
| KIKIKIKIWW | 92% | 92 | 9436 | 3.975 | 0,37 | -0,43 | -0.4266 | -0.43 | -0.43 | -0.4266 | -0.4266 | -0.43 |  |  | Log10 of Rel to EFC (Feb2021) [3, 11]: -0.43 |
| QCKIKIQINM | 89.7% | 89.7 | 9524 | 3.979 | 0,4 | -0,4 | -0.4024 | -0.4 | -0.4 | -0.4024 | -0.4024 | -0.4 | 15250 | -0.4024 |  |
| CKFKQFF | 90% | 90.05 | 2.567 | 0.4094 | 0,01 | -2,17 | -2.171 | -2.17 | -2.17 | -2.171 | -2.171 |  | 260 | -2.171 | Abs. Infection at 0.26 µM ([3]; peptide 0.26 µM, mean of n = 3, Figure 4A): 366.7; Infect 1 0.26 µM ([3]; peptide 0.26 µM, replicate 1, absolute infection signal, Figure 4A): 260; Infect 2 0.26 µM ([3]; peptide 0.26 µM, replicate 2, absolute infection signal, Figure 4A): 50; Infect 3 0.26 µM ([3]; peptide 0.26 µM, replicate 3, absolute infection signal, Figure 4A): 790; Abs. Infection at 1.3 µM ([3]; peptide 1.3 µM, mean of n = 3, Figure 4A): 260; Infect 1 .3 µM ([3]; peptide 1.3 µM, replicate 1, absolute infection signal, Figure 4A): 440; Infect 2 1.3µM ([3]; peptide 1.3 µM, replicate 2, absolute infection signal, Figure 4A): 160; Infect 3 1.3 µM ([3]; peptide 1.3 µM, replicate 3, absolute infection signal, Figure 4A): 180 |
| CEIEIQINMWQ | 67% | 66.95 | 1570 | 3.196 | 0,22 | -0,66 | -0.6602 | -0.66 | -0.66 | -0.6602 | -0.6602 | -0.66 |  |  |  |
